# Data: the NIST ThermoML archive (doi:10.1016/j.jct.2006.07.022)
# ± gives the expanded uncertainty stated by the source.
# Test: xn = mol fraction of the nth substance listed
# Conditions: 101 kPa, Liquid
structure (smiles),measurement,setting,value
CN(C)C=O [dimethylformamide] + c1ccccc1,mass density,"293.15 K, x2 = 0",948.58 ± 0.25 kg/m3
same,mass density,"293.15 K, x2 = 0.0785",943.13 ± 0.25 kg/m3
same,mass density,"293.15 K, x2 = 0.1347",939.28 ± 0.26 kg/m3
same,mass density,"293.15 K, x2 = 0.2036",934.59 ± 0.26 kg/m3
same,mass density,"293.15 K, x2 = 0.2699",930.11 ± 0.27 kg/m3
same,mass density,"293.15 K, x2 = 0.3352",925.71 ± 0.27 kg/m3
same,mass density,"293.15 K, x2 = 0.4034",921.13 ± 0.28 kg/m3
same,mass density,"293.15 K, x2 = 0.4874",915.49 ± 0.28 kg/m3
same,mass density,"293.15 K, x2 = 0.5432",911.72 ± 0.29 kg/m3
same,mass density,"293.15 K, x2 = 0.6044",907.55 ± 0.29 kg/m3
same,mass density,"293.15 K, x2 = 0.6705",903 ± 0.3 kg/m3
same,mass density,"293.15 K, x2 = 0.7413",898.06 ± 0.3 kg/m3
same,mass density,"293.15 K, x2 = 0.8056",893.49 ± 0.31 kg/m3
same,mass density,"293.15 K, x2 = 0.871",888.73 ± 0.32 kg/m3
same,mass density,"293.15 K, x2 = 0.9214",884.99 ± 0.32 kg/m3
same,mass density,"293.15 K, x2 = 0.9785",880.66 ± 0.33 kg/m3
same,mass density,"303.15 K, x2 = 0",939.46 ± 0.26 kg/m3
same,mass density,"303.15 K, x2 = 0.0689",934.59 ± 0.27 kg/m3
same,mass density,"303.15 K, x2 = 0.1354",929.93 ± 0.27 kg/m3
same,mass density,"303.15 K, x2 = 0.2037",925.19 ± 0.28 kg/m3
same,mass density,"303.15 K, x2 = 0.2701",920.6 ± 0.28 kg/m3
same,mass density,"303.15 K, x2 = 0.3387",915.87 ± 0.29 kg/m3
same,mass density,"303.15 K, x2 = 0.407",911.17 ± 0.29 kg/m3
same,mass density,"303.15 K, x2 = 0.4735",906.6 ± 0.3 kg/m3
same,mass density,"303.15 K, x2 = 0.5403",901.98 ± 0.3 kg/m3
same,mass density,"303.15 K, x2 = 0.6054",897.43 ± 0.31 kg/m3
same,mass density,"303.15 K, x2 = 0.6791",892.23 ± 0.31 kg/m3
same,mass density,"303.15 K, x2 = 0.7441",887.56 ± 0.32 kg/m3
same,mass density,"303.15 K, x2 = 0.81",882.75 ± 0.33 kg/m3
same,mass density,"303.15 K, x2 = 0.8741",877.97 ± 0.33 kg/m3
same,mass density,"303.15 K, x2 = 0.9245",874.12 ± 0.34 kg/m3
same,mass density,"303.15 K, x2 = 0.9784",869.92 ± 0.34 kg/m3
same,mass density,"313.15 K, x2 = 0",930.12 ± 0.28 kg/m3
same,mass density,"313.15 K, x2 = 0.0655",925.37 ± 0.28 kg/m3
same,mass density,"313.15 K, x2 = 0.1357",920.35 ± 0.29 kg/m3
same,mass density,"313.15 K, x2 = 0.2019",915.66 ± 0.29 kg/m3
same,mass density,"313.15 K, x2 = 0.2684",910.98 ± 0.3 kg/m3
same,mass density,"313.15 K, x2 = 0.336",906.21 ± 0.3 kg/m3
same,mass density,"313.15 K, x2 = 0.4063",901.26 ± 0.31 kg/m3
same,mass density,"313.15 K, x2 = 0.4726",896.57 ± 0.31 kg/m3
same,mass density,"313.15 K, x2 = 0.5367",892.03 ± 0.32 kg/m3
same,mass density,"313.15 K, x2 = 0.6038",887.24 ± 0.32 kg/m3
same,mass density,"313.15 K, x2 = 0.6792",881.8 ± 0.33 kg/m3
same,mass density,"313.15 K, x2 = 0.738",877.51 ± 0.34 kg/m3
same,mass density,"313.15 K, x2 = 0.8119",872.03 ± 0.34 kg/m3
same,mass density,"313.15 K, x2 = 0.873",867.4 ± 0.35 kg/m3
same,mass density,"313.15 K, x2 = 0.9314",862.88 ± 0.35 kg/m3
same,mass density,"313.15 K, x2 = 0.98",859.02 ± 0.36 kg/m3
same,mass density,"323.15 K, x2 = 0",920.55 ± 0.29 kg/m3
same,mass density,"323.15 K, x2 = 0.0785",914.76 ± 0.3 kg/m3
same,mass density,"323.15 K, x2 = 0.1359",910.58 ± 0.3 kg/m3
same,mass density,"323.15 K, x2 = 0.2021",905.79 ± 0.31 kg/m3
same,mass density,"323.15 K, x2 = 0.2687",901.01 ± 0.31 kg/m3
same,mass density,"323.15 K, x2 = 0.3364",896.14 ± 0.32 kg/m3
same,mass density,"323.15 K, x2 = 0.4066",891.09 ± 0.32 kg/m3
same,mass density,"323.15 K, x2 = 0.4735",886.28 ± 0.33 kg/m3
same,mass density,"323.15 K, x2 = 0.5415",881.37 ± 0.33 kg/m3
same,mass density,"323.15 K, x2 = 0.6092",876.44 ± 0.34 kg/m3
same,mass density,"323.15 K, x2 = 0.6736",871.72 ± 0.35 kg/m3
same,mass density,"323.15 K, x2 = 0.7453",866.4 ± 0.35 kg/m3
same,mass density,"323.15 K, x2 = 0.8089",861.6 ± 0.36 kg/m3
same,mass density,"323.15 K, x2 = 0.8797",856.16 ± 0.36 kg/m3
same,mass density,"323.15 K, x2 = 0.9374",851.62 ± 0.37 kg/m3
same,mass density,"323.15 K, x2 = 0.9777",848.38 ± 0.37 kg/m3
same,mass density,"333.15 K, x2 = 0",910.75 ± 0.3 kg/m3
same,mass density,"333.15 K, x2 = 0.0695",905.54 ± 0.31 kg/m3
same,mass density,"333.15 K, x2 = 0.1354",900.67 ± 0.32 kg/m3
same,mass density,"333.15 K, x2 = 0.2026",895.73 ± 0.32 kg/m3
same,mass density,"333.15 K, x2 = 0.2701",890.79 ± 0.33 kg/m3
same,mass density,"333.15 K, x2 = 0.3321",886.27 ± 0.33 kg/m3
same,mass density,"333.15 K, x2 = 0.4042",881.01 ± 0.34 kg/m3
same,mass density,"333.15 K, x2 = 0.475",875.82 ± 0.34 kg/m3
same,mass density,"333.15 K, x2 = 0.5487",870.41 ± 0.35 kg/m3
same,mass density,"333.15 K, x2 = 0.6014",866.51 ± 0.35 kg/m3
same,mass density,"333.15 K, x2 = 0.6758",860.97 ± 0.36 kg/m3
same,mass density,"333.15 K, x2 = 0.7371",856.36 ± 0.37 kg/m3
same,mass density,"333.15 K, x2 = 0.8142",850.48 ± 0.37 kg/m3
same,mass density,"333.15 K, x2 = 0.8809",845.28 ± 0.38 kg/m3
same,mass density,"333.15 K, x2 = 0.9398",840.58 ± 0.39 kg/m3
same,mass density,"333.15 K, x2 = 0.9785",837.43 ± 0.39 kg/m3
same,mass density,"343.15 K, x2 = 0",900.73 ± 0.32 kg/m3
same,mass density,"343.15 K, x2 = 0.0577",896.35 ± 0.32 kg/m3
same,mass density,"343.15 K, x2 = 0.1155",892 ± 0.33 kg/m3
same,mass density,"343.15 K, x2 = 0.1728",887.74 ± 0.33 kg/m3
same,mass density,"343.15 K, x2 = 0.2388",882.84 ± 0.34 kg/m3
same,mass density,"343.15 K, x2 = 0.299",878.39 ± 0.34 kg/m3
same,mass density,"343.15 K, x2 = 0.3652",873.49 ± 0.35 kg/m3
same,mass density,"343.15 K, x2 = 0.4202",869.41 ± 0.35 kg/m3
same,mass density,"343.15 K, x2 = 0.504",863.2 ± 0.36 kg/m3
same,mass density,"343.15 K, x2 = 0.5606",858.98 ± 0.37 kg/m3
same,mass density,"343.15 K, x2 = 0.6275",853.95 ± 0.37 kg/m3
same,mass density,"343.15 K, x2 = 0.6963",848.75 ± 0.38 kg/m3
same,mass density,"343.15 K, x2 = 0.7585",844 ± 0.39 kg/m3
same,mass density,"343.15 K, x2 = 0.8187",839.33 ± 0.39 kg/m3
same,mass density,"343.15 K, x2 = 0.8814",834.39 ± 0.4 kg/m3
same,mass density,"343.15 K, x2 = 0.9584",828.16 ± 0.41 kg/m3
